# Laboratory results: PubChem BioAssay (NCI)
# Values joined by “and” are separate entries in the source; they are usually repeats but may differ in a detail not shown here. Equal entries are not always repeated.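 Method: 48-hour compound exposure of cells in 96-well plates, five concentrations, linear interpolation of endpoints. The concentration for 50% growth inhibition is given as GI50. TGI: concentration producing complete growth inhibition.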 *1 amine or outer side, *2 acyl side, *3 side chain or, on linkers, in order; H or OH if unused. Where a SMILES comes first, the peptide text is derived from it. [ ]: non-standard residue; d: D form. The star is where a group is joined. ξ: configuration not given here. X27 = O=C([C@H]1CCC[C@H]1N[*:1])[*:2]; ξW = NC(Cc1c[nH]c2ccccc12)C(=O)O; ξF = NC(Cc1ccccc1)C(=O)O; Boc = CC(C)(C)OC(=O)*; ξK = NCCCCC(N)C(=O)O; ξT = CC(O)C(N)C(=O)O; tBu = CC(C)(C)*
# Columns and labels:
# Assay in all cases: NCI tumour cell line growth inhibition, 48 h
# OVCAR-8 ovarian = tested on: OVCAR-8 ovarian
# SNB-19 CNS = tested on: SNB-19 CNS
# A498 renal = tested on: A498 renal
# SK-OV-3 ovarian = tested on: SK-OV-3 ovarian
# DU-145 prostate = tested on: DU-145 prostate
# SK-MEL-2 melanoma = tested on: SK-MEL-2 melanoma
# U251 CNS = tested on: U251 CNS
# NCI-H23 lung = tested on: NCI-H23 lung
# K-562 leukemia = tested on: K-562 leukemia
# HCC-2998 colon = tested on: HCC-2998 colon
# UACC-257 melanoma = tested on: UACC-257 melanoma
# OVCAR-3 ovarian = tested on: OVCAR-3 ovarian
Compound,TGI (OVCAR-8 ovarian) [µM],TGI (SNB-19 CNS) [µM],TGI (A498 renal) [µM],TGI (SK-OV-3 ovarian) [µM],TGI (DU-145 prostate) [µM],TGI (SK-MEL-2 melanoma) [µM],TGI (U251 CNS) [µM],TGI (NCI-H23 lung) [µM],TGI (K-562 leukemia) [µM],TGI (HCC-2998 colon) [µM],TGI (UACC-257 melanoma) [µM],GI50 (SNB-19 CNS) [µM],GI50 (OVCAR-3 ovarian) [µM],GI50 (SK-OV-3 ovarian) [µM],GI50 (SK-MEL-2 melanoma) [µM],GI50 (U251 CNS) [µM],GI50 (K-562 leukemia) [µM],GI50 (HCC-2998 colon),GI50 (UACC-257 melanoma) [µM],TGI (OVCAR-3 ovarian) [µM]
c1cnn(C23C4C5C6C4C2C6C53)c1 (stereo not given),> 100,> 100,> 100,> 100,> 100,> 100,> 100,> 100,> 100,> 100,> 100,–,–,–,–,–,–,–,–,–
COc1cc([C@@H]2c3cc4c(c(O)c3C[C@H]3COC(=O)[C@@H]32)OCO4)cc(OC)c1OC,–,–,> 100,–,–,–,> 100,–,–,–,–,0.114,0.089,0.183,1.02,0.183,0.141,< 0.0241 µM and 0.241 µM,> 100,–
CC1(C)CC(=O)C(/C=N/C(N)=S)=C(O)C1,> 100,> 100,–,> 100,> 100,> 100,> 100,> 100,–,> 100,> 100,–,–,–,–,–,–,–,–,> 100
COC(=O)[C@H](Cc1ccccc1)NC(=O)/C(=C/C(C)C)NC(=O)[C@H](CCSC)NC=O,> 100,> 100,> 100,> 100,–,> 100,> 100,> 100,> 100,> 100,> 100,–,–,–,–,–,–,–,–,> 100
Nc1ccccc1Nc1ccccc1C(=O)[O-].Nc1ccccc1Nc1ccccc1C(=O)[O-].[Zn+2],> 100,> 100,> 100,> 100,–,43.2,> 100,> 100,> 100,> 100,> 100,–,–,–,–,–,–,–,–,61
O=C(Cn1cc(-c2ccccc2)nn1)NC1CCCCC1,> 100,> 100,–,–,> 100,> 100,> 100,> 100,> 100,> 100,> 100,–,–,–,–,–,–,–,–,–
NC1=NC2=c3ccccc3=C(c3cnccn3)C2(c2cnccn2)c2ccccc21 (stereo not given),> 100,> 100,69.1,> 100,–,> 100,> 100,> 100,> 100,> 100,> 100,–,–,–,–,–,–,–,–,81.4
C[Si](C)(C)C#Cc1cc(-c2nc3ccccc3s2)ccc1N,32.3,34.6,35,41.9,62.1,–,37.9,40.6,70.6,–,34.8,–,–,–,–,–,–,–,–,39.2
CC(=O)OC1CC2CCN3C(=O)c4cc5c(cc4[C@H](C1OC(C)=O)C23)OCO5 (stereo not given in full),> 100,> 100,–,> 100,–,–,> 100,> 100,> 100,> 100,> 100,–,–,–,–,–,–,–,–,> 100
CCN1CCCC(C#N)(c2ccccc2)CC1 (stereo not given),> 100,> 100,> 100,> 100,> 100,–,> 100,> 100,> 100,> 100,> 100,–,–,–,–,–,–,–,–,–
O=Cc1c2n(c3ccccc13)N[C@@](Cc1ccc(O)cc1)(C(=O)O)C2,> 100,> 100,> 100,> 100,> 100,> 100,> 100,> 100,> 100,–,86.9,–,–,–,–,–,–,–,–,> 100
N#C[C@H](C(=O)c1ccccc1F)c1nc2ccccc2s1,> 100,> 100,> 100,> 100,> 100,51.1,> 100,> 100,> 100,–,> 100,–,–,–,–,–,–,–,–,63.7
CCN(CC)Cc1cc(Nc2c3ccccc3nc3c2[nH]c2ccccc23)cc(CN(CC)CC)c1O,2.89,5.75,2.89,17,7.99,3.24,2.19,2.62,> 100,2.27,2.86,–,–,–,–,–,–,–,–,–
C(/C=C/c1ccccc1)=Nc1ccc2c(c1)Cc1ccccc1-2,> 100,> 100,> 100,–,> 100,> 100,44.4,> 100,> 100,–,–,–,–,–,–,–,–,–,–,> 100
N#Cc1cnc(-n2[nH]c3c(c2=O)CCCC3)[nH]c1=O,–,> 100,> 100,> 100,> 100,> 100,> 100,> 100,> 100,–,> 100,–,–,–,–,–,–,–,–,–
O=C(NC(=S)Nc1ccc2c(c1)Sc1ccccc1O2)c1ccc([N+](=O)[O-])cc1,> 100,> 100,–,> 100,> 100,> 100,> 100,> 100,> 100,–,> 100,–,–,–,–,–,–,–,–,> 100
CCN(CC)C(=O)Cn1c(-c2ccccc2)cc2ccccc21,> 100,> 100,–,> 100,> 100,> 100,> 100,> 100,> 100,> 100,> 100,–,–,–,–,–,–,–,–,> 100
O=C(CC(CC(=O)Oc1c(Br)cc(Br)cc1C(=O)O)C(=O)Oc1c(Br)cc(Br)cc1C(=O)O)Oc1c(Br)cc(Br)cc1C(=O)O,99.6,> 100,> 100,> 100,–,> 100,> 100,> 100,> 100,> 100,> 100,–,–,–,–,–,–,–,–,> 100
O=P1(Oc2ccccc2)N=P(c2ccccc2)(c2ccccc2)C=C(c2ccc(Cl)cc2)N1 (stereo not given),29.8,29.7,–,26,26.9,27.6,18.8,32.2,22.2,–,30.8,–,–,–,–,–,–,–,–,13.6
Oc1cc(O)c2ccc(-c3ccc(O)c(O)c3)[o+]c2c1,> 100,> 100,> 100,> 100,–,> 100,> 100,> 100,> 100,> 100,> 100,–,–,–,–,–,–,–,–,> 100

Compound,TGI (OVCAR-8 ovarian) [µM],TGI (SNB-19 CNS) [µM],TGI (A498 renal) [µM],TGI (SK-OV-3 ovarian) [µM],TGI (DU-145 prostate) [µM],TGI (SK-MEL-2 melanoma) [µM],TGI (U251 CNS) [µM],TGI (NCI-H23 lung) [µM],TGI (K-562 leukemia) [µM],TGI (HCC-2998 colon) [µM],TGI (UACC-257 melanoma) [µM],GI50 (SNB-19 CNS) [µM],GI50 (OVCAR-3 ovarian) [µM],GI50 (SK-OV-3 ovarian) [µM],GI50 (SK-MEL-2 melanoma) [µM],GI50 (U251 CNS) [µM],GI50 (K-562 leukemia) [µM],GI50 (HCC-2998 colon),GI50 (UACC-257 melanoma) [µM],TGI (OVCAR-3 ovarian) [µM]
CCOP(=O)(OCC)C(C)(C)N(C)/C(F)=N/C(F)(F)F,> 100,–,–,> 100,> 100,> 100,> 100,> 100,> 100,> 100,> 100,–,–,–,–,–,–,–,–,> 100
CCCCCC1CC=CC(=O)O1 (stereo not given),22.2,54.1,> 100,36.9,> 100,23.5,17.2,43,42.7,–,32.9,–,–,–,–,–,–,–,–,31.3
Cc1ccc2c(=O)cc(Cc3cccs3)[nH]c2n1,> 100,> 100,–,> 100,> 100,> 100,> 100,> 100,> 100,–,> 100,–,–,–,–,–,–,–,–,> 100
CC1(C)CC(O)C2=C(O1)C(=O)c1ncccc1C2=O (stereo not given),9.34,9.2,18.6,27.4,10,6.74,3.21,3.24,–,14.6,3.19,–,–,–,–,–,–,–,–,5.4
CC1=NN(C(=O)c2ccccc2O)C(=O)/C1=C/c1cccc(O)c1,> 100,> 100,0.323,> 100,> 100,> 48.4,> 100,–,> 100,> 100,> 100,–,–,–,–,–,–,–,–,–
Cn1c(NNc2ccccc2)cc(=O)[nH]c1=O,> 100,> 100,–,> 100,> 100,> 100,> 100,> 100,> 100,97.5,> 100,–,–,–,–,–,–,–,–,61.6
OCc1cc2c(ccc3sc4ccc5sc6ccc7ncccc7c6c5c4c32)s1,62.1,28.7,> 100,39.9,33.6,31.3,> 100,–,> 100,–,37.2,–,–,–,–,–,–,–,–,> 100
Cc1ccc(/C=N/n2c(Cc3ccccc3)n[nH]c2=O)cc1,> 100,> 100,> 100,–,> 100,–,–,> 100,> 100,> 100,> 100,–,–,–,–,–,–,–,–,> 100
Cc1c(C)c(C)c(CC2(C)CSC2)c(CC2(C)CSC2)c1C,> 100,> 100,> 100,> 100,> 100,> 100,> 100,–,> 100,–,> 100,–,–,–,–,–,–,–,–,> 100
Cc1[nH]c(=O)nc2c1C(NCCCN(C)C)c1cc(Cl)ccc1N2 (stereo not given),28.7,31.2,–,32.1,–,31.5,29.3,32.3,26.9,30.1,26,–,–,–,–,–,–,–,–,33.6
Nc1ccc2nc3c(nc2c1)C(=O)c1ccccc1-3,> 100,> 100,–,> 100,> 100,–,> 100,> 100,> 100,> 100,> 100,–,–,–,–,–,–,–,–,> 100
CC(=O)OCC(C)C1=C(OC(C)=O)C(=O)C2(C)C/C=C(/C)CC/C=C(\C)CCC(OC(C)=O)C(C)CCC12 (stereo not given),44.9,43.9,–,–,36.7,30.6,31.3,–,33.4,31.2,35.8,–,–,–,–,–,–,–,–,–
CCCC(=O)NC(Nc1cc(C)ccn1)(C(=O)OCC)C(F)(F)F (stereo not given),> 100,> 100,–,> 100,> 100,> 100,> 100,> 100,> 100,> 100,> 100,–,–,–,–,–,–,–,–,> 100
O=C(O)CSC(CC1(c2ccc(Cl)cc2)NC(=O)CS1)c1ccc(Cl)cc1 (stereo not given),> 100,> 100,> 100,> 100,> 100,> 100,> 100,> 100,> 100,–,> 100,–,–,–,–,–,–,–,–,> 100
CCCC(=O)Nc1cc(/C=C/C(=O)N2CC(CCl)c3c2cc(OCc2ccccc2)c2[nH]cc(C)c32)n(C)c1 (stereo not given),0.202,24.6,1.14,> 25,–,0.218,> 9.21,0.0654,0.904,–,0.868,–,–,–,–,–,–,–,–,0.512
CC(OC(C)(C)C)C1NC(=O)C(CCCCNC(=O)OC(C)(C)C)NC(=O)C(Cc2c[nH]c3ccccc23)NC(=O)C(Cc2ccccc2)NC(=O)[C@H]2CCC[C@H]2NC(=O)C(Cc2ccccc2)NC1=O (stereo not given in full) (cyclo([X27][ξF][ξW][ξK](Boc)[ξT](tBu)[ξF])),> 100,69.6,–,> 100,> 100,62.8,> 100,> 100,> 100,> 100,33.5,–,–,–,–,–,–,–,–,> 100
Oc1ccc2c(c1)CCc1c-2n(CCN2CCOCC2)c2ccc(O)cc12,57.1,> 100,39.6,> 100,> 100,70.9,> 100,90.3,> 100,–,> 100,–,–,–,–,–,–,–,–,> 100
COc1cc2nc(Nc3cccc(Br)c3)nc(Nc3cccc(Br)c3)c2cc1OC,31.6,32.3,–,34.4,34.1,36.1,35.7,33.3,62.2,44.6,–,–,–,–,–,–,–,–,–,31.2
Cc1cc(O)c2c(c1O)C(=O)c1cccc(O)c1C2=O,> 100,> 100,–,> 100,> 100,> 100,> 100,> 100,> 100,> 100,> 100,–,–,–,–,–,–,–,–,> 100
COc1ccc(NC(=S)N/N=C\c2ccc(NC(C)=O)cc2)cc1,–,> 100,–,> 100,> 100,> 100,> 100,> 100,–,> 100,> 100,–,–,–,–,–,–,–,–,> 100
